Experiments:
IL-1β = test: PBMC assay: IL-1β release after LPS stimulation (NLRP3 inflammasome activity); assay type: cell-based; settings: human PBMCs, 30 min pre-incubation, 100 ng/ml LPS for 6 hrs, supernatant, MSD technology
Experimental: (§1) Peripheral venous blood was collected from healthy individuals and human peripheral blood mononuclear cells (PBMCs) were isolated from blood by Ficoll-Histopaque (Sigma-Aldrich, A0561) density gradient centrifugation. After isolation, PBMCs were stored in liquid nitrogen for later use. Upon thawing, PBMC cell viability was determined in growth medium (RPMI media supplemented with 10% fetal bovine serum, 1% Pen-Strep and 1% L-glutamine). Compounds were spotted in a 1:3 serial dilution in DMSO and diluted to the final concentration in 30 μl medium in 96 well plates (Falcon, 353072). PBMCs were added at a density of 7.5×10^4 cells per well and incubated for 30 min in a 5% CO2 incubator at 37° C. LPS stimulation was performed by addition of 100 ng/ml LPS (final concentration, Invivogen, tirl-smips) for 6 hrs followed by collection of cellular supernatant and the analysis of IL-1β (μM) and TNF cytokines levels (μM) via MSD technology according to manufacturers' guidelines (MSD, K151A0H).

TNF = test: PBMC assay: TNF cytokine level after LPS stimulation; assay type: cell-based; settings: human PBMCs, 30 min pre-incubation, 100 ng/ml LPS for 6 hrs, supernatant, MSD technology
Experimental: as §1
The IC50 values (for IL-1β) and EC50 values (TNF) were obtained on compounds of the invention/examples, and are depicted in the following table: […]

SMILES | IC50 (IL-1β) | EC50 (TNF) | melting point
CCN(C)c1nn(CC(=O)Nc2ccncn2)c(=O)c2cc3scnc3n12 [Final Cpd 1, 2-[12-[ethyl(methyl)amino]-9-oxo-5-thia-1,3,10,11-tetrazatricyclo-[6.4.0.02,6]dodeca-2(6),3,7,11-tetraen-10-yl]-N-pyrimidin-4-yl-acetamide] | 360 nM | 8560 nM | 214.8 °C
CCCN(C)c1nn(CC(=O)Nc2ccncn2)c(=O)c2cc3scnc3n12 [Final Cpd 8] | 280 nM | > 10000 nM | 196.7 °C
COCCN(C)c1nn(CC(=O)Nc2ccncn2)c(=O)c2cc3sccc3n12 [Final Cpd 3] | 660 nM | > 10000 nM | 
CN(C)c1nn(CC(=O)Nc2ccc3nncn3n2)c(=O)c2cc3sc(Cl)cc3n12 [Final Cpd 12, N-([1,2,4]triazolo[4,3-b]pyridazin-6-yl)-2-(2-chloro-5-(dimethylamino)-8-oxothieno[2′,3′:4,5]pyrrolo[1,2-d][1,2,4]triazin-7(8H)-yl)acetamide] | 20 nM | 6970 nM | 
CN(C)c1nn(CC(=O)N[C@H]2C[C@@](C)(O)C2)c(=O)c2cc3sccc3n12 [Final Cpd 11, 2-(5-(dimethylamino)-8-oxothieno[2′,3′:4,5]pyrrolo[1,2-d][1,2,4]triazin-7(8H)-yl)-N-((1s,3s)-3-hydroxy-3-methylcyclobutyl)acetamide] |  | > 10000 nM | 
CNc1nn(CC(=O)Nc2ccncn2)c(=O)c2cc3scnc3n12 [Final Cpd 10] | 270 nM | > 10000 nM | 263.5 °C
CN(C)c1nn(CC(=O)N[C@H]2C[C@@](C)(O)C2)c(=O)c2cc3scnc3n12 [Final Cpd 9] | < 120 nM | > 10000 nM | 221.7 °C
CN(C)c1nn(CC(=O)Nc2ccncn2)c(=O)c2cc3scnc3n12 [Final Cpd 2] | < 120 nM | > 10000 nM | 248.3 °C
CCCN(C)c1nn(CC(=O)Nc2ccncn2)c(=O)c2cc3sccc3n12 [Final Cpd 4] | 320 nM | > 10000 nM | 
CCN(C)c1nn(CC(=O)Nc2ccncn2)c(=O)c2cc3sccc3n12 [Final Cpd 6] | 250 nM | > 10000 nM | 
CN(C)c1nn(CC(=O)Nc2ccncn2)c(=O)c2cc3sccc3n12 [Final Cpd 7] | < 120 nM | > 10000 nM | 
CNc1nn(CC(=O)Nc2ccncn2)c(=O)c2cc3sccc3n12 [Final Cpd 5] | 210 nM | > 10000 nM | 
